Results taken from patent US7981512B2, “Organic polymer-magnetic particles and process for producing same” (JSR Corporation, priority 2006, dated 2011).

Conditions: distilled water
Experimental: In the invention, the solubility in water at 25° C. of the monomer is determined by slowly adding the monomer in question to distilled water at 25° C. while stirring until the monomer separates from the water. The amount (% by mass) of the monomer in the solution immediately before separation is defined as the solubility.

Structure (SMILES) | solubility in water at 25° C.
C=C(C)C(=O)OCCOC(=O)c1ccccc1C(=O)O [2-methacryloyloxyethyl phthalate] | less than 0.2 % by mass
C=C(C)C(=O)O [methacrylic acid] | 100 % by mass
